This is an account of results in PubChem BioAssay (NCI).

What all share (test): growth of human tumour cells (NCI), 48 h
For test [1], the system named is RXF 393 renal.
In test [2] the test system is RPMI-8226 leukemia.
Test [3] deals with SK-OV-3 ovarian.
The subject of test [4] is CAKI-1 renal.
Test [5] deals with SNB-19 CNS.
For test [6], the system named is SNB-75 CNS.
Test [7] has as its system ACHN renal.
For test [8], the system named is MDA-MB-435.
Test [9] relates to HL-60(TB) leukemia.
Test [10] deals with LOX IMVI melanoma.

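Grown in 96-well plates, cells were treated for 48 hours with each compound at five concentrations. Insufficient inhibition: endpoint recorded as highest concentration tested. Definition used: TGI = concentration required for complete inhibition of growth.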

In the case of `C=C1CCC[C@@H](C)C(O)[C@@H]2OC(=O)C(=C)[C@@H]2C[C@@H](OC(C)=O)[C@@]2(C)CC[C@@H]1O2` (stereo partly drawn), the TGI is 12.9 µM in test [1]; greater than 50 µM in [2]; 40.8 µM in test [3]; 13.6 µM in [4]; greater than 50 µM in [5]; 10.1 µM in [6]. Further, the TGI is 13.4 µM in [7] and 15.1 µM in [8].

Take `CC1=C(C)C(=O)C(C2=CC(=O)c3ccccc3C2=O)=C(C2=CC(=O)c3ccccc3C2=O)C1=O`: the TGI in test [1] was 22.4 µM; in test [3], 45.8 µM; in test [4], 8.86 µM; in [9], 12.3 µM; in test [5], greater than 36.5 µM; in test [6], 31.5 µM. Moreover, the TGI in [7] is 14.9 µM; in test [8] it was 1.19 µM; in test [10], greater than 21.2 µM.

In the case of `Oc1ccc(C(O)C2CCCCN2)cc1O` (stereo not drawn), the TGI in test [1], in test [2], in test [3], in test [4], in test [5] and in test [6] was greater than 100 µM throughout. Moreover, the results for the TGI in test [7], in [8] and in [10] were greater than 100 µM, greater than 100 µM and 65.5 µM, respectively.

As for `COC(=O)c1sc(=O)sc1SCc1cccc(CSc2sc(=O)sc2C(=O)OC)c1`, the TGI was 73.2 µM in test [1]; 51.4 µM in test [3]; 93.5 µM in [4]; 61.6 µM in [5]; greater than 100 µM in test [7]; greater than 100 µM in test [8]. The TGI in [10] was greater than 100 µM.

As to `N#Cc1c(-c2ccc([N+](=O)[O-])cc2)c(C#N)c(=O)n(NS(=O)(=O)c2ccccc2)c1S`, the TGI in test [1] was greater than 100 µM; in test [2], 44.6 µM; in test [3], greater than 100 µM; in test [4], greater than 100 µM; in [5] it was greater than 100 µM; in [6] it was greater than 100 µM. Besides, the TGI in test [7] is greater than 100 µM; in test [8], 81.9 µM; in test [10], 38 µM.

Regarding `O=C1NC(O)c2cc3ccccc3cc2O1` (stereo not drawn), the TGI in [1], in [2], in test [3], in [9], in [5] and in test [6] was greater than 100 µM each time. In addition, the TGI in test [7] is greater than 100 µM; in test [8], greater than 100 µM; in test [10], 95.3 µM.

With `CC(=O)CC1(CBr)Nc2ccc([N+](=O)[O-])cc2NC1=O` (stereo not drawn), the TGI in test [1], in test [2], in test [3], in test [4], in test [5] and in [6] was greater than 100 µM in each case. Besides, the TGI in [7], in [8] and in [10] was greater than 100 µM throughout.

In the case of `C/C(=N\Nc1nc2ccccc2s1)c1ccncn1`, the TGI in test [1] was 24.7 µM; in test [2], greater than 26 µM; in [3] it was greater than 32.1 µM; in test [4] it was 12.2 µM; in test [5] it was greater than 28.4 µM; in test [6], 24.4 µM. Moreover, the TGI in [7] was 11.8 µM; in test [8] it was greater than 100 µM.

Consider `O=C(O)c1c(CC(Cc2ccc3c(c2)CCC3)C(=O)O)ccc2c1CCC2` (stereo not drawn), for which the TGI in test [2], in test [4], in test [9], in test [5], in test [7] and in test [8] was greater than 100 µM throughout. In test [10], this molecule registered a TGI greater than 100 µM.

In the case of `O=c1[nH]c(=O)n(COC(CO)CO)cc1-c1ccccc1`, the TGI in test [2], in test [3], in [4], in test [9], in test [5] and in test [6] was greater than 100 µM in each case. The TGI in test [7], in test [8] and in [10] was greater than 100 µM in each case.

Take `COc1ccc(N2C(=O)C3c4[nH]c5c(C)cccc5c4C4CCC(C(C)C)CC4C3C2=O)cc1` (stereo not drawn): the TGI is greater than 100 µM in test [2]; 47.7 µM in test [3]; 37.6 µM in test [4]; greater than 100 µM in test [5]; 9.4 µM in [6]; 47.2 µM in [7]. Further, the TGI worked out at 23.3 µM in [8] and 19.3 µM in test [10].

With `CC(=O)n1[nH]c(=O)n(-c2ccc(Cl)cc2)c1=O`, the TGI in test [1], in test [2], in test [3], in [4], in test [9] and in test [5] was greater than 100 µM throughout. The TGI in test [7], in test [8] and in test [10] was greater than 100 µM in each case.

`CC1OC(OC2C(O[C@H]3CC[C@@]4(C)C(=CC[C@H]5[C@@H]6C[C@@H]7O[C@]8(CC[C@@H](C)CO8)[C@@H](C)[C@@H]7[C@@]6(C)CC[C@@H]54)C3)OC(CO)C(O)C2OC2OC(CO)C(O)C(O)C2O)C(O)C(O)C1O` (stereo partly drawn): the TGI in [1] came to 4.43 µM; in test [3], 3.19 µM; in test [4], 5.07 µM; in test [5], 3.46 µM; in test [6] it was 3.7 µM; in [7], 3.29 µM. In addition, the TGI in test [8] stood at 3.73 µM; in test [10], 5.9 µM.

In the case of `O=C(CNc1ccccc1C(=O)O)Nn1cnc2ccc(S(=O)(=O)Nc3ccccc3C(=O)O)cc2c1=O`, the TGI in [2], in test [3], in test [4], in test [9], in test [5] and in test [6] was greater than 100 µM in each case. For the same molecule, the TGI in test [7], in test [8] and in test [10] was greater than 100 µM each time.

For `O=C(O)CSC(CC(=O)c1ccc(Cl)cc1)c1ccc(Cl)cc1` (stereo not drawn), the TGI is 61.2 µM in [2]; 97.9 µM in [3]; greater than 100 µM in test [4]; 7.45 µM in test [9]; greater than 100 µM in test [5]; greater than 100 µM in test [6]. In addition, the TGI is greater than 100 µM in test [7], greater than 100 µM in test [8] and 40.1 µM in [10].

In the case of `COc1cc2c(cc1OC)C(=O)N(c1ccc(OCCN3CCCC3)cc1)C2`, the TGI in test [1], in [2], in [3], in test [4], in [9] and in test [5] was greater than 100 µM throughout. The TGI in test [7], in [8] and in test [10] was greater than 100 µM each time.

Take `COc1cc2c[n+]3c4c(c2c(OC)c1OC)CCCC4CC3` (stereo not drawn): the TGI in [1], in test [2], in test [3], in test [4], in test [5] and in test [7] was greater than 100 µM throughout. This molecule also returned a TGI in test [8] greater than 100 µM.

Take `C/C(=C1\N=C(c2ccccc2)OC1=O)c1ccccc1`: the TGI in [2], in test [3], in [4], in test [9], in [5] and in test [6] was greater than 100 µM throughout. Further, the TGI in test [7], in [8] and in [10] was greater than 100 µM throughout.

Consider `CCN(CC)C(=S)SC(C(=O)Nc1nnc(-c2ccc(Cl)cc2)o1)c1ccccc1` (stereo not drawn), for which the TGI in test [1] is 48.8 µM; in test [2], 22 µM; in [3], 31.4 µM; in [4], 51.8 µM; in test [9], greater than 100 µM; in test [5], greater than 100 µM. The figures for the TGI in test [7], in test [8] and in [10] were 26.3 µM, 36 µM and 40.2 µM, respectively.

`CC(Nc1ccc(Cl)cc1)c1ccncc1` (stereo not drawn): the TGI in test [1] was greater than 100 µM; in test [2], 98.3 µM; in test [3] it was 11.8 µM; in test [4] it was greater than 100 µM; in test [5] it was greater than 100 µM; in [6], greater than 100 µM. Moreover, the TGI in test [7], in test [8] and in test [10] was greater than 100 µM each time.

`COc1ccc(-c2ccc(C(=O)C=P(c3ccccc3)(c3ccccc3)c3ccccc3)cc2)cc1`: the TGI in [1] is 27 µM; in test [2], 5.01 µM; in test [3], 34.9 µM; in [4] it was 42 µM; in test [9], 6.77 µM; in [5] it was greater than 100 µM. Moreover, the TGI in [7] was 30.7 µM; in test [8] it was 30 µM; in test [10] it was 31.5 µM.

`CSC(SC)=C(C(=O)c1ccc(Cl)cc1)n1c(=O)sc2cc(Br)ccc21`: the TGI in test [1], in test [2], in test [3], in [4], in [9] and in test [5] was greater than 100 µM in each case. Also, the TGI in test [7], in [8] and in [10] was greater than 100 µM in each case.

As for `Clc1ccc2c(c1)N(CCCN1CCCC13CCCCC3)c1ccccc1S2`, the TGI in test [1] was 17.6 µM; in test [2] it was 11.3 µM; in test [3], 57.7 µM; in test [4] it was greater than 76.8 µM; in [9], 5.18 µM; in test [5], 34.3 µM. Besides, the figures for the TGI in test [7], in test [8] and in [10] were 47.5 µM, 27.4 µM and 26.5 µM, respectively.

`O=[N+]([O-])c1ccc(-n2nc3ccc4nonc4c3n2)cc1`: the TGI in test [2] was greater than 100 µM; in [3], 56.5 µM; in test [4], 73.7 µM; in [9], greater than 100 µM; in [5] it was greater than 100 µM; in test [6], 30.8 µM. Moreover, the TGI in test [7], in test [8] and in [10] was greater than 100 µM throughout.

For the molecule `N[C@@H](CCC(=O)NC(Cc1ccccc1)C(=O)NCP(=O)(O)O)C(=O)O` (stereo partly drawn), the TGI in test [2], in [9], in [5], in [7], in [8] and in test [10] was greater than 100 µM throughout.

`CC(C)(C)C1CCC2c3c([nH]c4ccccc34)C3C(=O)N(c4ccc([N+](=O)[O-])cc4)C(=O)C3C2C1` (stereo not drawn): the TGI in test [1] was 23.6 µM; in [2], greater than 100 µM; in test [3], 73.9 µM; in [9], 34.7 µM; in [5] it was 67.5 µM; in test [6] it was 38.4 µM. Moreover, the TGI in [7] is greater than 100 µM; in test [8] it was greater than 100 µM; in test [10] it was 20.8 µM.

Consider `N#CCCC(C=O)(CCC#N)CCC#N`, for which the TGI in [1], in [3], in [4], in [9], in test [5] and in test [6] was greater than 100 µM in each case. Further, the TGI in [7], in [8] and in test [10] was greater than 100 µM each time.

For the molecule `N#Cc1ccccc1NC(=O)C(=O)C(C(=O)c1ccccc1F)C1OC(=O)c2ccccc21` (stereo not drawn), the TGI is 87.6 µM in test [1]; 76.7 µM in test [2]; greater than 100 µM in test [3]; greater than 100 µM in [4]; 54.6 µM in [9]; greater than 100 µM in [5]. Moreover, the TGI in test [6], in test [7] and in test [10] was greater than 100 µM throughout.

Turning to `Cc1c(C)c2c(c(N)c1C#N)C(=O)N(N)C2=O`, the TGI in test [1], in test [2], in [3], in test [4], in [9] and in [5] was greater than 100 µM throughout. Moreover, the TGI in test [6], in test [7] and in test [8] was greater than 100 µM in each case.
